# Measured values published in PMC6018633, “Structural bases of TRP channel TRPV6 allosteric modulation by 2-APB” (Nature Communications, 2018).
# Columns and labels:
# wild-type rTRPV6 = wild-type rTRPV6 (Rattus norvegicus, UniProt Q9R186); test: cell-based
# Protocol: (§1) Arrows indicate the times when 2-APB and Ca^2+ were added. […] The changes in the fluorescence intensity ratio at 340 and 380 nm (F340/F380) evoked by addition of 2 mM Ca^2+ after preincubation with various concentrations of 2-APB were normalized to the maximal change in F340/F380 after addition of 2 mM Ca^2+ in the absence of 2-APB. […] Error bars represent SEMs
# (§2) For crystallization experiments, we used the previously developed construct TRPV6*[39], which includes wild-type rat TRPV6 (rTRPV6) residues 1–668 and three point mutations (I62Y, L92N, and M96Q), and the TRPV6*-Y466A construct, which contains an additional point mutation, Y466A. For calcium uptake measurement experiments, we used TRPV6*, rTRPV6, and rTRPV6 with individual alanine substitutions (rTRPV6-E402A, rTRPV6-H425A, rTRPV6-Y466A, rTRPV6-R469A, and rTRPV6-M602A), wild-type human TRPV6 (hTRPV6), hTRPV6 with a single tyrosine-to-alanine substitution (hTRPV6-Y467A), wild-type rat TRPV1 (rTRPV1), rat TRPV2 (rTRPV2) and mouse TRPV3 (mTRPV3), and their mutant versions with single tyrosine-to-alanine substitutions (rTRPV1-Y554A, rTRPV2-Y514A, and mTRPV3-Y564A, respectively). For cryo-EM experiments, we used hTRPV6 and hTRPV6-Y467A constructs.
# (§3) The intracellular Ca^2+ measurements from HEK 293 cells expressing different TRP channel constructs (see above) were performed similarly to those described previously[39],[49]. Briefly, to measure 2-APB-dependent inhibition of TRPV6 activity, cells expressing TRPV6 constructs were suspended in Ca^2+-free buffer and transferred to a quartz cuvette. After an initial 100-s equilibration period, 2-APB was added to the cuvette and incubated for another 100 s, before 2 mM CaCl2 was added. For the TRPV6-E402A mutant, 5 mM instead of 2 mM CaCl2 was added. For intracellular Ca^2+ measurements from HEK 293 cells expressing TRPV1, TRPV2, or TRPV3, the experiments were carried out with prewarmed modified HBS (118 mM NaCl, 4.8 mM KCl, 1 mM MgCl2, 2.5 mM CaCl2, 5 mM D-glucose, 10 mM HEPES pH 7.4). Briefly, HEK 293 cells expressing TRPV1/2/3 channels were centrifuged at 600×g, resuspended in modified HBS containing 5 μg/mL of Fura 2-AM (Life Technologies), and incubated at 37 °C for 45 min. Next, the cells were centrifuged for 5 min at 600×g, resuspended in prewarmed, modified HBS, and incubated again at 37 °C for 20–30 min in the dark. The cells were subsequently pelleted and washed twice, and then resuspended in modified HBS for fluorescence measurements. Intracellular Ca^2+ was measured by taking the ratio of fluorescence (510 nm) emitted from Fura 2-AM after excitation at either a wavelength of 340 nm (excites Ca^2+ bound Fura 2-AM) or 380 nm (excites Ca^2+ free Fura 2-AM). The excitation wavelength was switched at 1-s intervals. ΔF340/F380 was measured as the difference between baseline F340/F380 ratio recorded before the addition of Ca^2+ (for TRPV6 experiments) or 2-APB (for TRPV1-3) and the maximum F340/F380 after addition of either Ca^2+ or 2-APB. Data were normalized to ΔF340/F380 in the absence of 2-APB (for TRPV6 constructs) or the ΔF340/F380 value at saturating concentrations of 2-APB (for TRPV1/2/3).
# hTRPV6-Y467A = hTRPV6-Y467A (Homo sapiens, UniProt Q9H1D0, Y507A); test: cell-based
# Protocol: as §1, §2, §3
# wild-type hTRPV6 = wild-type hTRPV6 (Homo sapiens, UniProt Q9H1D0); test: cell-based
# wild-type hTRPV6, sequence (Q9H1D0 41-765 limits assumed): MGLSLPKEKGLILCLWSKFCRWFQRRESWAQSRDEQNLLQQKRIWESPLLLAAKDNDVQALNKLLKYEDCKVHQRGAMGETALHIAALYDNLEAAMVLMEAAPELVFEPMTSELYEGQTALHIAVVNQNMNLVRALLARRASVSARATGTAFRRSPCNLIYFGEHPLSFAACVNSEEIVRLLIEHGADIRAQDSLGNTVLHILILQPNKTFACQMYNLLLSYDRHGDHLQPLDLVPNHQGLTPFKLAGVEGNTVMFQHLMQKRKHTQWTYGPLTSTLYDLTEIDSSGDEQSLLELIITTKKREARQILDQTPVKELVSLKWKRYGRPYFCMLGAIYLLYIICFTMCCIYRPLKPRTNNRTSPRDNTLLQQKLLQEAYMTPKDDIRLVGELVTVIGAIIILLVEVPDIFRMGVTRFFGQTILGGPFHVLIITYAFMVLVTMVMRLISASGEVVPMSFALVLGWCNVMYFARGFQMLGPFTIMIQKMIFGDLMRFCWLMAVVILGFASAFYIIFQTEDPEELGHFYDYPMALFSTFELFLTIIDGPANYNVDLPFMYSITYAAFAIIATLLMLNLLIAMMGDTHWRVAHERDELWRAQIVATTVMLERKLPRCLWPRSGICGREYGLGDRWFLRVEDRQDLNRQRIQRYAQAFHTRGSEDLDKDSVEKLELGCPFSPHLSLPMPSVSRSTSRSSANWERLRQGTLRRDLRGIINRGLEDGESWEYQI
# Protocol: as §1, §2, §3
# [1] = target: TRPV6* (rat TRPV6 residues 1-668, I62Y, L92N, M96Q) (Rattus norvegicus, UniProt Q9R186, I102Y/L132N/M136Q); test: cell-based
# TRPV6* (rat TRPV6 residues 1-668, I62Y, L92N, M96Q), sequence (Q9R186 1-668 I102Y/L132N/M136Q): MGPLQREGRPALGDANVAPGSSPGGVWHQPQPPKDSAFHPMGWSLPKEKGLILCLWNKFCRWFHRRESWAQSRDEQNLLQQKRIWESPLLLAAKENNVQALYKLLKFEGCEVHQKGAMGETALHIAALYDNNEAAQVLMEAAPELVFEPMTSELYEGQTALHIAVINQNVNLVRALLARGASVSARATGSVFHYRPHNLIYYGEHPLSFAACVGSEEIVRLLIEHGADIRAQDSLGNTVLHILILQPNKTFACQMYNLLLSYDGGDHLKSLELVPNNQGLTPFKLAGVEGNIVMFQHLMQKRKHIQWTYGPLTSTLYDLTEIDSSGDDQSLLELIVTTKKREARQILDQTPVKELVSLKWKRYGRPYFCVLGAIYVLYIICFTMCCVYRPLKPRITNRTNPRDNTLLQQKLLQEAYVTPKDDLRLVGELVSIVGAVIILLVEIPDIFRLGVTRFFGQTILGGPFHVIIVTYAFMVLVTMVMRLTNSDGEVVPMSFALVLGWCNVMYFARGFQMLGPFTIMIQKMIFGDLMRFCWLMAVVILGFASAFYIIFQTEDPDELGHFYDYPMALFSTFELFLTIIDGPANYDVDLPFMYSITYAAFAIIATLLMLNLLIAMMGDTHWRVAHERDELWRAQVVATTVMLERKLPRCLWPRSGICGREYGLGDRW
# Protocol: as §1, §2, §3
# rat TRPV2 (rTRPV2-Y514A) = settings: leftward shift of 2-APB concentration dependence; HEK 293 cells, Fura-2
# Description: (§4) Fig. 5 Probing of the 2-APB binding site in different TRPV channels. a–c Dose–response curves for 2-APB activation of wild-type (black) and mutant (red) rat TRPV1 (a), rat TRPV2 (b), and mouse TRPV3 (c) channels with alanine substitution of the conserved tyrosine in the presumed 2-APB binding pocket. Each data point represents an average of n = 3–7 measurements with error bars representing SEMs. d, e Close-up view of superposition of the 2-APB binding pocket in the TRPV6*2-APB crystal structure (cyan) and the corresponding regions of rat TRPV1 (d) PDB ID: 5IRX, orange and rabbit TRPV2 (e) PDB ID: 5AN8, green. Phosphatidylcholine (PC), cholesterol and 2-APB molecules as well as the side chain of the conserved tyrosine are shown as sticks
# (§5) For crystallization experiments, we used the previously developed construct TRPV6*[39], which includes wild-type rat TRPV6 (rTRPV6) residues 1–668 and three point mutations (I62Y, L92N, and M96Q), and the TRPV6*-Y466A construct, which contains an additional point mutation, Y466A. […]
# (§6) The intracellular Ca^2+ measurements from HEK 293 cells expressing different TRP channel constructs (see above) were performed similarly to those described previously[39],[49]. […] The cells were subsequently pelleted and washed twice, and then resuspended in modified HBS for fluorescence measurements. Intracellular Ca^2+ was measured by taking the ratio of fluorescence (510 nm) emitted from Fura 2-AM after excitation at either a wavelength of 340 nm (excites Ca^2+ bound Fura 2-AM) or 380 nm (excites Ca^2+ free Fura 2-AM). The excitation wavelength was switched at 1-s intervals. ΔF340/F380 was measured as the difference between baseline F340/F380 ratio recorded before the addition of Ca^2+ (for TRPV6 experiments) or 2-APB (for TRPV1-3) and the maximum F340/F380 after addition of either Ca^2+ or 2-APB. […] All Fura2-AM-based fluorescence measurements were conducted using a QuantaMaster^TM 40 (Photon Technology International) spectrofluorometer at room temperature in a quartz cuvette under constant stirring.
# rat TRPV1 (rTRPV1-Y554A) = settings: leftward shift of 2-APB concentration dependence; HEK 293 cells, Fura-2
# Description: as §4, §5, §6
# [2] = system: mouse TRPV3 (mTRPV3-Y564A); settings: leftward shift of 2-APB concentration dependence; HEK 293 cells, Fura-2
# Description: as §4, §5, §6
# TRPV4 = settings: cited from earlier work
# TRPV5 = settings: cited from earlier work
# rTRPV6-M602A = rTRPV6-M602A (Rattus norvegicus, UniProt Q9R186, M642A); test: cell-based
# rTRPV6-M602A, sequence (Q9R186 41-767 M642A limits assumed): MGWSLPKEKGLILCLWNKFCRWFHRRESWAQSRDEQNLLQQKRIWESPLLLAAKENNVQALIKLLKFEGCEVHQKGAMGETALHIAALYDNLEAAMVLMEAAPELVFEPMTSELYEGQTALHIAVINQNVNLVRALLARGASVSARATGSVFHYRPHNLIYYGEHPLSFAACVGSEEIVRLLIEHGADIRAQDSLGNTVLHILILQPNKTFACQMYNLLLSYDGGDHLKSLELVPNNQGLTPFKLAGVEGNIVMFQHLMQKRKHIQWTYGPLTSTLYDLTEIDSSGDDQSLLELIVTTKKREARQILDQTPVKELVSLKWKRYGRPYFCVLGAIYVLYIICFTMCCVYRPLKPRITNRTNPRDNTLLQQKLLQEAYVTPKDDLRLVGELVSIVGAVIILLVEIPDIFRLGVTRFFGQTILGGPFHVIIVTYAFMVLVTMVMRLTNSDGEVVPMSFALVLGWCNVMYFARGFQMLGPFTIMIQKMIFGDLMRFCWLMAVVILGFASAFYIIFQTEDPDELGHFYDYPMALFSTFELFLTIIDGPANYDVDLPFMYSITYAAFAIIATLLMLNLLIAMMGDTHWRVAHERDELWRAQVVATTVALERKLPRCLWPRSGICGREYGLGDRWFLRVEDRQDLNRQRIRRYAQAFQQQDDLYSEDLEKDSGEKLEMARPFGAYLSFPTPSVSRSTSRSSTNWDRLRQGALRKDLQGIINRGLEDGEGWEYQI
# Description: (§7) To further characterize the 2-APB binding site and to examine the contribution of individual residues to 2-APB inhibition, we introduced alanine substitutions at residues in the 2-APB binding pocket (E402, H425, Y466, R469, and M602) and tested 2-APB inhibition.
# as §2
# as §3, with “TRPV1/2/3). All Fura2-AM-based fluorescence measurements were conducted using a QuantaMaster^TM 40 (Photon Technology International) spectrofluorometer at room temperature in a quartz cuvette under constant stirring.” for “TRPV1/2/3).”
# rTRPV6-Y466A = rTRPV6-Y466A (Rattus norvegicus, UniProt Q9R186, Y506A); test: cell-based
# rTRPV6-Y466A, sequence (Q9R186 41-767 Y506A limits assumed): as the sequence (Q9R186 41-767 M642A limits assumed) above, with Y466A, A602M counted along it
# Description: as §7, §2
# as §3, with “TRPV1/2/3). All Fura2-AM-based fluorescence measurements were conducted using a QuantaMaster^TM 40 (Photon Technology International) spectrofluorometer at room temperature in a quartz cuvette under constant stirring.” for “TRPV1/2/3).”
# rTRPV6-H425A = rTRPV6-H425A (Rattus norvegicus, UniProt Q9R186, H465A); test: cell-based
# rTRPV6-H425A, sequence (Q9R186 41-767 H465A limits assumed): as the sequence (Q9R186 41-767 M642A limits assumed) above, with H425A, A602M counted along it
# Description: as §7, §2
# as §3, with “TRPV1/2/3). All Fura2-AM-based fluorescence measurements were conducted using a QuantaMaster^TM 40 (Photon Technology International) spectrofluorometer at room temperature in a quartz cuvette under constant stirring.” for “TRPV1/2/3).”
# rTRPV6-R469A = rTRPV6-R469A (Rattus norvegicus, UniProt Q9R186, R509A); test: cell-based
# rTRPV6-R469A, sequence (Q9R186 41-767 R509A limits assumed): as the sequence (Q9R186 41-767 M642A limits assumed) above, with R469A, A602M counted along it
# Description: as §7, §2
# as §3, with “TRPV1/2/3). All Fura2-AM-based fluorescence measurements were conducted using a QuantaMaster^TM 40 (Photon Technology International) spectrofluorometer at room temperature in a quartz cuvette under constant stirring.” for “TRPV1/2/3).”
# rTRPV6-E402A = rTRPV6-E402A (Rattus norvegicus, UniProt Q9R186, E442A); test: cell-based
# rTRPV6-E402A, sequence (Q9R186 41-767 E442A limits assumed): as the sequence (Q9R186 41-767 M642A limits assumed) above, with E402A, A602M counted along it
# Description: as §7, §2
# as §3, with “TRPV1/2/3). All Fura2-AM-based fluorescence measurements were conducted using a QuantaMaster^TM 40 (Photon Technology International) spectrofluorometer at room temperature in a quartz cuvette under constant stirring.” for “TRPV1/2/3).”
# [3] = target: TRPV6* (rat TRPV6 residues 1-668 with I62Y, L92N and M96Q) (rat) (UniProt Q9R186); test: crystal structure; TRPV6* constructs purified in DDM, without or with 1 mM 2-APB or 2-APB-Br; hanging drop, 20 °C, 20-24% PEG 350 MME, 50 mM NaCl, 50 mM Tris-HCl pH 8.0-8.5
# [4] = target: the molecule itself; test: cryo-EM structure; hTRPV6-Y467A in amphipols, 0.35 mg/ml, without or with 1 mM 2-APB; C4 symmetry imposed
# [5] = HEK 293 cells, Fura-2, logistic fit, mean ± SEM
# [6] = HEK 293 cells, Fura-2, logistic fit
# wild-type rTRPV6, sequence (Q9R186 41-767 limits assumed): as the sequence (Q9R186 41-767 M642A limits assumed) above, with A602M counted along it
molecule,measurement,setting,value
"NCCOB(c1ccccc1)c1ccccc1 [2-APB, 2-aminoethoxydiphenyl borate]",IC50,wild-type rTRPV6,184 ± 8 µM
same,"maximal inhibition of Ca2+ uptake, wild-type rTRPV6",wild-type rTRPV6; [5],93.6 ± 1.1%
same,IC50,hTRPV6-Y467A,60 ± 13 µM
same,"maximal inhibition of Ca2+ uptake, hTRPV6-Y467A",hTRPV6-Y467A; [6],92.4 ± 8.1%
same,"increased potency of 2-APB inhibition, hTRPV6-Y467A compared to hTRPV6",hTRPV6-Y467A; ratio of IC50 values,4.5 fold
same,IC50,wild-type hTRPV6,274 ± 27 µM
same,"maximal inhibition of Ca2+ uptake, wild-type hTRPV6",wild-type hTRPV6; [6],72.6 ± 2.7%
same,IC50,[1],156 ± 20 µM
same,"maximal inhibition of Ca2+ uptake, TRPV6*",[1]; [5],83.5 ± 2.9%
same,"increase in 2-APB agonist potency, TRPV2 tyrosine-to-alanine mutant vs wild-type",rat TRPV2 (rTRPV2-Y514A),40 fold
same,"increase in 2-APB agonist potency, TRPV1 tyrosine-to-alanine mutant vs wild-type",rat TRPV1 (rTRPV1-Y554A),3 fold
same,"increase in 2-APB agonist potency, TRPV3 tyrosine-to-alanine mutant vs wild-type",[2],20 fold
same,2-APB modulation of TRPV4,TRPV4,lack of measurable 2-APB modulation
same,2-APB modulation of TRPV5,TRPV5,lack of measurable 2-APB modulation
same,IC50,rTRPV6-M602A,98 ± 19 µM
same,IC50,rTRPV6-Y466A,3.62 ± 0.54 µM
same,IC50,rTRPV6-H425A,165 ± 32 µM
same,IC50,rTRPV6-R469A,23.4 ± 1.6 µM
same,IC50,rTRPV6-E402A,7.5 ± 2.1 µM
"TRPV6* (rat TRPV6 residues 1-668 with I62Y, L92N and M96Q) (from UniProt Q9R186 1-668) (domain or fragment)",stoichiometry N,[3],4
human TRPV6 with a single tyrosine-to-alanine substitution (hTRPV6-Y467A) (natural protein) MGLSLPKEKGLILCLWSKFCRWFQRRESWAQSRDEQNLLQQKRIWESPLLLAAKDNDVQALNKLLKYEDCKVHQRGAMGETALHIAALYDNLEAAMVLMEAAPELVFEPMTSELYEGQTALHIAVVNQNMNLVRALLARRASVSARATGTAFRRSPCNLIYFGEHPLSFAACVNSEEIVRLLIEHGADIRAQDSLGNTVLHILILQPNKTFACQMYNLLLSYDRHGDHLQPLDLVPNHQGLTPFKLAGVEGNTVMFQHLMQKRKHTQWTYGPLTSTLYDLTEIDSSGDEQSLLELIITTKKREARQILDQTPVKELVSLKWKRYGRPYFCMLGAIYLLYIICFTMCCIYRPLKPRTNNRTSPRDNTLLQQKLLQEAYMTPKDDIRLVGELVTVIGAIIILLVEVPDIFRMGVTRFFGQTILGGPFHVLIITYAFMVLVTMVMRLISASGEVVPMSFALVLGWCNVMAFARGFQMLGPFTIMIQKMIFGDLMRFCWLMAVVILGFASAFYIIFQTEDPEELGHFYDYPMALFSTFELFLTIIDGPANYNVDLPFMYSITYAAFAIIATLLMLNLLIAMMGDTHWRVAHERDELWRAQIVATTVMLERKLPRCLWPRSGICGREYGLGDRWFLRVEDRQDLNRQRIQRYAQAFHTRGSEDLDKDSVEKLELGCPFSPHLSLPMPSVSRSTSRSSANWERLRQGTLRRDLRGIINRGLEDGESWEYQILVPRGSAAAWSHPQFEK,stoichiometry N,[4],4
